Experimental data taken from article PMC3521869 (Journal of medicinal chemistry, 2012).
Bridge positions count the residues as written; N and C are the ends. Square brackets hold non-standard residues; d marks the D form. 2Nal = N[C@@H](Cc1ccc2ccccc2c1)C(=O)O; Cit = NC(=O)NCCC[C@H](N)C(=O)O

Assay: Fraction bound to serum proteins
Type: in vitro ADME
Details: human

cyclo([2Nal]CY[Cit]KVCPKILQRCRRDSDCPGACICRGNGYCGSYR[Cit]CRG[dP]RR) (disulfide 2-38, 7-24, 14-26, 20-32) [MCo-CVX-5c]
fraction unbound: < 0.01
